Assay results published in patent US9115061B2, “Naphthalene-based inhibitors of anti-apoptotic proteins” (BURNHAM INSTITUTE FOR MEDICAL RESEARCH, priority 2007, dated 2015).

What was measured:
H1299 = conditions: cited from earlier work
Mcl-1 = Mcl-1 (Homo sapiens (Human), UniProt Q07820); conditions: cited from earlier work
[1] = system: murine B-cells from BCL-2 transgenic mice; assay: Viability of cultured splenocytes, Annexin V-FITC/PI; assay type: cell-based; conditions: 18 hours; read-out: IC50, induction of apoptosis in cultured B-cells of BCL-2 transgenic mouse
Method: (§1) Spleens were excised from sacrificed mice and cell suspensions treated with a mouse erythrocyte lysing kit (R & D Systems). Total splenocyte count was determined by typan blue dye exclusion assays using hemocytometers. The percentage of B-lymphocytes was determined by fluorescence activated cell sorter (FACS) analysis SACS-CANTO, Bectin-Dickinson Inc., Mountain View, Calif.) following staining cells with Phyco-Erytrin (PE)-conjugated anti-CD19 or -B220 antibodies (Becton Dickinson, San Jose, Calif. 95131).
After 18 hours of incubation, % viability of splenocytes was determined by FACSort after staining cells by the use of an Annexin V-FITC/PI Apoptosis Detection kit (BioVision Inc.). Viable cells were defined by Annexin V-negative, PI-negative cells.

[2] = Liver microsomal stability; conditions: rat liver microsomes, 4 μM, 60 min
Method: Pooled rat liver microsomes (BD Biosciences, #452701) were preincubated with test compounds at 37.5° C. for 5 min in the absence of NADPH. The reaction was initiated by addition of NADPH and then incubated under the same conditions. […] One aliquot (100 μL) of the incubation mixture was withdrawn at 0, 15, 30, and 60 min and combined immediately with 200 μL of ACN/MeOH containing an internal standard. After mixing, the sample was centrifuged at approximately 13,000 rpm for 12 min. The supernatant was transferred into an autosampler vial and the amount of test compound was quantified using the Shimadzu LCMS 2010EV mass spectrometer. The change of the AUC (area under the curve) of the parent compound as function of time was used as a measure of microsomal stability.

BCL-2 transgenic mice = assay: Oral efficacy study in BCL-2 transgenic mice (splenomegaly); assay type: in vivo, mouse
Method: The transgene was propagated on the Balb/c background.
(§2) Spleens were removed and weighed.
as §1
Representative data are shown by FIGS. 11A and 11B.

GST-BCL-2 = GST-BCL-2 (Homo sapiens (Human), UniProt P10415); assay: Fluorescence polarization assay (FITC-Bim BH3 peptide); assay type: binding; conditions: for EC50: read-out: EC50 FPA BCL-2
Method: (§3) After 30 min incubation at room temperature, the polarization values in millipolarization units were measured at excitation/emission wavelengths of 480/535 nm with a multilabel plate reader (PerkinElmer). IC50 was determined by fitting the experimental data to a sigmoidal dose-response nonlinear regression model (SigmaPlot 10.0.1, Systat Software, Inc., San Jose, Calif., USA). Data reported are mean of three independent experiments ±standard error (SE). Performance of BCL-2 and Mcl-1 FPA are similar. […] Fluorescence polarization was measured after 10 min.

Plasma stability = assay type: in vitro ADME, rat; conditions: for Plasma Stability (T = 1 hr): rat plasma, 37.5° C.
Method: A 20 μL aliquot of a 10 mM solution in DMSO of the test compound was added to […] of heparinized rat plasma (Lampire, P1-150N) to obtain a 100 μM final solution. The mixture was incubated for 1 h at 37.5° C. Aliquots of 100 μL were taken (0, 30 min, 1 h) and diluted with 200 μL of MeOH containing internal standard.

RS11846 cell line [3] = assay: Apoptosis, Annexin V and propidium iodide assay; assay type: cell-based, human; conditions: 1-2 days; read-out: RS11846 EC50 (Annexin V- and propidium iodide assay)
Method: The apoptotic activity of the compounds against RS11846 cells was assessed by staining with Annexin V- and propidium iodide (PI). Lymphoma cell line, RS11846, was cultured in RPMI 1640 medium (Mediatech Inc., Herndon, Va. 20171) containing 10% fetal bovine serum (Mediatech Inc., Herndon, Va. 20171) and Penicillin/Streptomycin (Mediatech Inc., Herndon, Va. 20171). […] The percentage of viable cells was determined by FITC-Annexin V- and propidium iodide (PI)-labeling, using an Apoptosis Detection kit (BioVision Inc.), and analyzing stained cells by flow cytometry (FACSort; Bectin-Dickinson, Inc.; Mountain View, Calif.). Cells that were annexin-V-negative and PI-negative were considered viable.

[4] = PAMPA (parallel artificial membrane permeation assay); conditions: for Cell Permeability: PAMPA, pH 7.2, 8 h
Method: PAMPA is parallel artificial membrane permeation assay. A 96-well microtiter plate (Millipore, # MSSACCEPTOR) was completely filled with aqueous buffer solution (pH 7.2) and covered with a microtiter filterplate (Millipore, # MAPBMN310). The hydrophobic filter material was impregnated with a 10% solution of hexadecane in hexane and the organic solvent was allowed to completely evaporate. Permeation studies were started by the transfer of 200 μL of a 100 μM test compound solution on top of the filterplate. In general phosphate buffer at pH 7.2 buffer was used. The maximum DMSO content of the stock solutions was <5%. In parallel, an equilibrium solution lacking a membrane was prepared using the exact concentrations and specifications but lacking the membrane. The concentrations of the acceptor and equilibrium solutions were determined using the Shimadzu LCMS-2010EV and AUC methods. The permeation of a compound through the membrane layer is described by the percentage permeation (% flux). The flux values were calculated considering the concentration of the acceptor compartment after 8 h and that of a reference well with the same concentration containing no membrane barrier.

DOHH2 cell line = assay: Apoptosis induction in NHL B-cell lines, Annexin V-FITC/PI; assay type: cell-based; conditions: 48 hours; read-out: IC50, % viability DOHH2
Method: (§4) After 48 hours of incubation, % viability was determined by FACSort after staining cells by the use of an Annexin V-FITC/PI Apoptosis Detection kit (BioVision Inc.). Viable cells were defined by Annexin V-negative, PI-negative cells.

380 cell line = assay: as above; assay type: cell-based; conditions: 48 hours, relative to DOHH2 and RS11846
Method: as §4

RS11846 cell line [5] = assay: as above; assay type: cell-based; conditions: 48 hours; read-out: IC50, % viability RS11846
Method: as §4

H460 cell line = assay: Cell viability, ATP-LITE assay; assay type: cell-based, human; conditions: for EC50: 72 hours, ATP-LITE
Method: (§5) The activity of the compounds against human cancer cell lines (PC3ML, H460, H1299, RS11846) were assessed by using the ATP-LITE assay (PerkinElmer). All cells were seeded in either F12 or RPMI1640 medium with 5 mM L-glutamine supplemented with 5% fetal bovine serum (Mediatech Inc.), penicillin and streptomycin (Omega). For maintenance, cells were cultured in 5% FBS. Cells plated into 96 well plates at varying initial densities depending on doubling time. H460 and H1299 plated at 2000 cells/well, A549 and PC3 at 3000 cells/well, and RS118456S at 10,000 cells/well. Compounds were diluted to final concentrations with 0.1% DMSO. Prior to dispensing compounds onto cells, fresh 5% media was placed into wells. Administration of compounds occurred 24 hours after seeding into the fresh media. Cell viability was evaluated using ATP-LITE reagent (PerkinElmer) after 72 hours of treatment. Data were normalized to the DMSO control-treated cells using Prism version 5.01 (Graphpad Software).

RS11846 cell line [6] = assay: Cell viability, ATP-LITE assay; assay type: cell-based, human; conditions: 72 hours
Method: as §5

PC3ML cells = assay: Cell viability, ATP-LITE assay; assay type: cell-based, human
Method: as §5

Balb/c mice = assay: Oral toxicity study in normal Balb/c mice; assay type: in vivo, mouse
Method: Compounds or vehicle control were dosed 15 times over 3 weeks, giving compounds daily for 5 consecutive days (Monday-Friday), resting on weekends.
Both compounds were provided by NCI-DTP (RAID-program). Compounds were dissolved in 100% sesame oil just before oral administration. Vehicle-control consisted of corresponding concentration of ascorbic acid suspended in 100% sesame oil.
as §2
Whole blood (250 μl) was collected in EDTA-coated glass tubes (purple top; MICROTAINER Brand Tube with EDTA, Catalogue #365973, Becton, Dickinson and Company, New Jersey 07417-1885) via either cardiac puncture or severing the brachial artery of anesthetized mice. After thorough mixing, specimens were analyzed using a VetScan HM2 (Abaxis Inc., Union City, Calif. 94587) hematology analyzer, measuring white blood cell count (WBC), red blood cell count (RBC), platelet (PLT) count, leukocyte differential (including % lymphocyte, % monocyte and % granulocyte), hematocrit (Ht), and hemoglobin (Hb).
(Eppendorf Centrifuge 5415C) for 2 minutes to separate serum from cells and fibrin clot. The resulting serum specimens were analyzed using an automated blood chemistry analyzer (“COBAS MIRA Classic”; Roche, Indianapolis, Ind. 46250-0414) to measure alanine aminotransferase (ALT) and aspartate aminotransferase AST), blood urea nitrogen (BUN), and […].
Stomach and intestines were examined also imaged by ultrasound for evidence of dilation, an indication of GI toxicity. Briefly, mice were anesthetized using a mixture of isofluorane (5%) and oxygen gas (95%), restrained on a heated table using Aquagel Lubrication Gel (Parker Laboratories, Inc., Fairfield, N.J. 07004), and abdominal hair was removed with a chemical depilation agent (Nair™ Hair Removal, Church & Dwight Co., Inc., Princeton, N.J. 08543). Aquasonic 100 Ultrasound Transmission Gel (Parker Laboratories, Inc., Fairfield, N.J. 07004) was applied to the abdomen prior to imaging using a high-frequency probe to assess gas and intestinal distention.
Immediately after ultrasound imaging, electrocardiogram (ECG) analysis of anesthetized mice was performed using a MP150 Biopack System.

GST-BCL-XL ΔTM protein = GST-BCL-XL ΔTM protein (Homo sapiens (Human), UniProt Q07817); assay: Competitive fluorescence polarization assay (FITC-Bak BH3 peptide); assay type: binding
Method: For competitive binding assays, 100 nM GST-BCL-XL ΔTM protein was preincubated with the tested compound at varying concentrations in 47.5 μL PBS (pH=7.4) in 96-well black plates at room temperature for 10 min, then 2.5 μL of 100 nM FITC-labeled Bak BH3 peptide was added to produce a final volume of 50 μL. The wild-type and mutant Bak BH3 peptides were included in each assay plate as positive and negative controls, respectively.
IC50 was determined by fitting the experimental data to a sigmoidal dose-response nonlinear regression model (SigmaPlot 10.0.1, Systat Software, Inc., San Jose, Calif., USA). Data reported are mean of three independent experiments ±standard error (SE). […] Fluorescence polarization was measured after 10 min.

BCL-XL [7] = target: T1, BCL-XL (Homo sapiens (Human), UniProt Q07817); assay: Isothermal titration calorimetry (ITC); assay type: binding
Method: Titrations were performed using a VP-ITC or ITC200 calorimeter from Microcal (Northampton, Mass.). BCL-XL was used at concentrations between 25 and 100 μM in 20 mM sodium phosphate buffer (pH 7.4) and 5-10% DMSO. Titrants were used at concentrations 10-15× of the protein in the same buffer. Titrations were carried out at 25° C. Data were analyzed using Microcal Origin software provided by the ITC manufacturer (Microcal, Northampton, Mass.).

BCL-XL [8] = target: T1, BCL-XL; assay: 1D 1H-NMR binding assay; on 1D 1H-NMR Binding Assay (BCL-XL): key: +++: Very Active; ++: Active; +: Mild; −: Weak
Method: By observing the aliphatic region of the spectra, binding could be readily detected due to chemical shift changes in active site methyl groups of Ile, Leu, Thr, Val or Ala (region between −0.8 and 0.3 ppm). All experiments were performed with a 600 MHz spectrometer Bruker Avance 600 equipped with four rf channels and z-axis pulse-field gradients.

GST-Mcl-1 = GST-Mcl-1 (Homo sapiens (Human), UniProt Q07820); assay: Fluorescence polarization assay (FITC-Bim BH3 peptide); assay type: binding
Method: as §3, with “(SE).” for “(SE). Performance of BCL-2 and Mcl-1 FPA are similar.”

B6BCL2 mouse = assay: Spleen weight in B6BCL2 transgenic mice after intraperitoneal injection; assay type: in vivo
Method: Transgenic mice expressing BCL-2 have been described as the B6 line. The BCL-2 transgene represents a minigene version of a t(14;18) translocation in which the human BCL-2 gene is fused with the immunoglobulin heavy-chain (IgH) locus and associated IgH enhancer. The transgene was propagated on the Balb/c background.
After 24 hours, B6BCL2 mice were sacrificed by intraperitoneal injection of lethal dose of Avertin. Spleen was removed and weighed. […] Spleen tissue was fixed in z-FIX for 3 days and rinsed in PBS, and saved for histological analysis of spleen (H&E staining and TUNEL assay).

GST-BCL-2, sequence (P10415 whole entry): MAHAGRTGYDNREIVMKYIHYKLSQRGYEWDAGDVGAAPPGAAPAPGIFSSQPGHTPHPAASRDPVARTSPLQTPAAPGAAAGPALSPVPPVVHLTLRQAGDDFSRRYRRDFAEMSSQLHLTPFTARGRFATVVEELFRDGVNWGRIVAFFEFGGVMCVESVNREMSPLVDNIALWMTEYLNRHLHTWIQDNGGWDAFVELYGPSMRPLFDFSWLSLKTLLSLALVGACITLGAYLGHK
T1 sequence (Q07817 whole entry): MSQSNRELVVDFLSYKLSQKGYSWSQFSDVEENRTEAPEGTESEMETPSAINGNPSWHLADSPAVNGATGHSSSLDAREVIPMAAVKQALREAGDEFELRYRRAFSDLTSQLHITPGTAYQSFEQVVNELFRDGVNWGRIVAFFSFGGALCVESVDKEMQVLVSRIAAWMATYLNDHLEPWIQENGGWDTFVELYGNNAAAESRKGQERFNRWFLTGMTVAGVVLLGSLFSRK
GST-Mcl-1, sequence (Q07820 whole entry): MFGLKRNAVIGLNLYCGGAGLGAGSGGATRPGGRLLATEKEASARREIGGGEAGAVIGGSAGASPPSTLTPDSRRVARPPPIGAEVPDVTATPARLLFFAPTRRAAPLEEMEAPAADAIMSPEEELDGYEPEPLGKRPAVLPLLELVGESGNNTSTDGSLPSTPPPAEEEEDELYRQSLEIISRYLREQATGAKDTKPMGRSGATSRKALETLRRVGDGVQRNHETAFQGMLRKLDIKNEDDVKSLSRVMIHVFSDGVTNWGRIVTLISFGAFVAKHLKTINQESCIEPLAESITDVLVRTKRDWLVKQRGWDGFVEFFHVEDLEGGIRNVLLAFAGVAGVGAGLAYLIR
GST-BCL-XL ΔTM protein, sequence (Q07817 1-209): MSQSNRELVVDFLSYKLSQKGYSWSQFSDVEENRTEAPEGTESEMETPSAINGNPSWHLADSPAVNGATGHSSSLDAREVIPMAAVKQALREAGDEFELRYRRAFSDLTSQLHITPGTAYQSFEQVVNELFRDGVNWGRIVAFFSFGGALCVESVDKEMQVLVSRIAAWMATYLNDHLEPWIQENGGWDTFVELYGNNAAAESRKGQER
Mcl-1, sequence (Q07820 whole entry): as the sequence (Q07820 whole entry) above

## CN(C)CC[C@H](CSc1ccccc1)Nc1ccc(S(=O)(=O)NC(=O)c2ccc(N3CCN(Cc4ccccc4-c4ccc(Cl)cc4)CC3)cc2)cc1[N+](=O)[O-] [ABT-737]
H1299
  killing of Mcl-1 overexpressing cell lines such as H1299: not effective in killing
Mcl-1
  effectiveness against Mcl-1: not effective

## Cc1cc2c(C(C)C)c(O)c(O)cc2c(O)c1-c1c(C)cc2c(C(C)C)c(O)c(O)cc2c1O [Apogossypol, apogossypol]
[1]
  IC50: 1000 to 2000 nM
[2]
  Microsomal Stability (T = 1 hr): 60%
BCL-2 transgenic mice; 0.06 mmol/kg oral, QDX5 for 3 weeks
  tolerability, low dose: well tolerated
BCL-2 transgenic mice; 0.06 mmol/kg oral, QDX5 for 3 weeks, wet weight and B-cell count
  shrinkage of spleen, low dose: induced shrinkage of spleen to a significant extent
BCL-2 transgenic mice; […] daily oral
  spleen size, high dose: reduced roughly by half
BCL-2 transgenic mice; […] oral, QDX5 for 3 weeks
  tolerability, high dose: well tolerated
GST-BCL-2
  EC50: 2800 nM
Plasma stability
  Plasma Stability (T = 1 hr): 53%
RS11846 cell line [3]
  EC50: 8600 nM
[4]
  Cell Permeability: Low
DOHH2 cell line
  IC50: ~3000 nM
380 cell line
  sensitivity of 380 cell line: slightly more resistant
RS11846 cell line [5]
  IC50: ~3000 nM
H460 cell line
  EC50: 2800 nM
H460 cell line; listed as apogossypol
  EC50: 3400 nM
RS11846 cell line [6]
  EC50: 5000 nM
PC3ML cells; 72 hours, ATP-LITE
  EC50: 10300 nM
Balb/c mice; […] oral, day 18 of treatment
  mice found dead: One of 6
Balb/c mice; […] oral, three weeks
  general condition of mice: remained active and apparently healthy
Balb/c mice; orally or by intraperitoneal injection
  toxicity, preliminary maximum tolerated dose (MTD) studies: less toxic than gossypol

## Cc1cc2c(C(=O)Cc3ccccc3)c(O)c(O)cc2c(O)c1-c1c(C)cc2c(C(=O)Cc3ccccc3)c(O)c(O)cc2c1O [Compound I, 1,1′-(1,1′,6,6′,7,7′-hexahydroxy-3,3′-dimethyl-2,2′-binaphthyl-5,5′-diyl)bis(2-phenylethanone)]
[2]
  Microsomal Stability (T = 1 hr): 64%
GST-BCL-XL ΔTM protein
  times more effective than apogossypol, FP displacement BCL-XL: ~20 times
GST-BCL-XL ΔTM protein; Table 3, read-out: EC50 FPA BCL-XL
  EC50: 190 nM
BCL-XL [7]
  times more potent than apogossypol, Kd ITC BCL-XL: 10 times
BCL-XL [7]; 25° C., pH 7.4
  Kd: 170 nM
BCL-XL [8]; 1D 1H-NMR spectra
  chemical shift changes in active site methyl groups of BCL-XL: significant chemical shift changes
BCL-XL [8]; 4-point-rating scale, compounds 200 μM, BCL-XL 25 μM
  1D 1H-NMR Binding Assay (BCL-XL): +++
GST-BCL-2
  fold more potent than apogossypol, BCL-2 FPA: approximately 8 fold
  EC50: 360 nM
Plasma stability; 1 hour
  degraded after 1 hour incubation in rat plasma: 15%
Plasma stability
  Plasma Stability (T = 1 hr): 85%
GST-Mcl-1
  fold more potent than apogossypol, Mcl-1 FPA: ~5 fold
GST-Mcl-1; read-out: EC50 FPA Mcl-1
  EC50: 520 nM
B6BCL2 mouse; mouse, in vivo
  macroscopic toxicity: no macroscopic toxicity
B6BCL2 mouse; single BCL-2 transgenic mouse, 60 μmol/kg, intraperitoneal, 24 hours
  reduction in spleen weight, single mouse: 40%
B6BCL2 mouse; six mice, P<0.0001 vs control
  reduction of spleen weight, groups of six mice: ~40%
RS11846 cell line [3]
  EC50: 4900 nM
[4]
  cell membrane permeability compared to apogossypol: improved
  Cell Permeability: Medium
H460 cell line
  times more potent than apogossypol, H460 EC50: 4-5 times
PC3ML cells
  fold more potent than apogossypol, PC3ML EC50: 2-5 fold
